# Results published in patent US20220249606A1, “Method of treatment of degenerative diseases caused by membrane channel-forming peptides fragments” (Zarbio, priority 2021, published 2022).
# Entries after “also recorded” stand apart in the source; their conditions may differ. Read-outs that look alike come from different tables or passages of the source.
# Legend:
# [1] = Flow cytometric calcium permeabilization of phosphatidylserine liposomes (Fluo-3/DiD); type: biochemical; settings: for permeabilization of negatively charged (phosphatidylserine) liposomes to calcium: 400 nm liposomes, Fluo-3, flow cytometer
# Description: (§1) The figure is a composite of data which was presented and analyzed in detail in (Zaretsky and Zaretskaia 2020, Zaretsky and Zaretskaia 2020). Liposomes (400 nm) were made of either phosphatidylserine (A-E, negatively charged lipid) or phosphatidylcholine (F-H, neutral lipid) with added DiD and were extruded in the Ca-free buffer containing 1 mM Fluo-3. After the addition of calcium, aliquots of peptide were added. Ionomycin was used as a positive control. Fluorescence of liposomes was analyzed using a flow cytometer. Each dot at the graph represent a single liposome registered in the flow. The intensity of DiD fluorescence characterizes the amount of membrane material in the liposome, while the fluorescence of Fluo-3 depends on the intraliposomal presence of calcium. […] The liposomes inside rectangle (area R1) are permeabilized, and the number of liposomes which were counted to be within the area is shown.
# Liposomes with embedded ion-sensitive probe are used as a test system. Liposomes are extruded from phosphatidylserine containing membrane probe (i.e. DiD) in a calcium-free buffer containing ion-sensitive probe (i.e. Fluo-4) and volume probe (i.e. dextran-tetramethylrhodamin) or membrane probe (DiD). Extravesicular probes are cleared using either centrifugation, or dialysis. After the addition of calcium, the intravesicular calcium-sensing probe remain non-fluorescent because membranes are not permeable to calcium. If membrane channels are formed, calcium enters permeable liposomes, saturates the calcium-sensing dye, so the liposome becomes fluorescent. The number of fluorescent liposomes is an estimate of the number of channel-forming units in the solution.
# [2] = Flow cytometric calcium permeabilization of phosphatidylcholine liposomes (Fluo-3/DiD); type: biochemical; settings: 400 nm liposomes, Fluo-3, flow cytometer
# Description: as §1
# [3] = tested on: Aβ-induced apoptosis in the brain; settings: cited from earlier work; for Aβ-induced apoptosis (TUNEL marker in the brain) / accumulation of Aβ immunoreactivity / amyloid: chronic Aβ infusion with simultaneous i.c.v. infusion of inhibitor
# amyloid channels = amyloid channels (Homo sapiens, UniProt P05067); settings: cited from earlier work
# Sequence of amyloid channels (P05067 672-711): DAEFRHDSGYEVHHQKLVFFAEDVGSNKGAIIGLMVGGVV
# [4] = cited from earlier work
# [5] = tested on: Aβ1-42-induced drop of cell survival; settings: Tizon 2010; cited from earlier work
# [6] = tested on: 15 cells derived from pancreatic islets of Langerhans; settings: cited from earlier work; for beta-amyloid-induced drop in cell viability: two cell lines, not specified
# [7] = tested on: rat primary cortical cultures; settings: MTT, different concentrations of Aβ; cited from earlier work
# [8] = tested on: 15 cells derived from pancreatic islets of Langerhans; settings: cited from earlier work; for amylin-induced drop in cell viability / cellular toxicity: pancreatic islet cell line
# Aβ1-42 toxicity = settings: Aβ1-42, Aksenov 1996; cited from earlier work
# [9] = MTT, listed as al-anti-chymotrypsin
molecule,measurement,setting,value
C[C@H](CCC(=O)O)C[C@H](C)C[C@H](C)C(=O)/C=C(\O)[C@H](C)C[C@H](C)C/C=C/[C@@H](C)[C@@H](O)[C@@H](C)[C@@H](O)C[C@@H]1CC[C@@](C)([C@H]2CC[C@@](C)([C@@H](C)O)O2)O1 [ionomycin],permeabilization of negatively charged (phosphatidylserine) liposomes to calcium,[1],permeabilizes liposomes
same,permeabilization of neutral (phosphatidylcholine) liposomes to calcium,[2],permeabilizes thousands of liposomes
CC(=O)N[C@@H](CC(C)C)C(=O)N[C@@H](CC(C)C)C(=O)N[C@H](C=O)CCCNC(=N)N [leupeptin],Aβ-induced apoptosis (TUNEL marker in the brain),[3]; rats,promoted apoptosis
same,accumulation of Aβ immunoreactivity / amyloid,[3]; rats,accumulation of extracellular and intracellular Aβ immunoreactivity
same,"apoptosis by the inhibitor itself (spontaneously occurring, TUNEL)","[3]; rats, inhibitor without Aβ",tends to increase apoptosis
NC(CO)(CO)CO [tromethamine],blockade of smaller amyloid channels (<400 pS),amyloid channels,effectively blocked
same,blockade of super-high conductance giant channels (>1 nS),amyloid channels,less effective
Aβ1-42: full-length amyloid peptide,permeabilization of negatively charged (phosphatidylserine) liposomes to calcium,[1],ineffective; also recorded: does not permeabilize liposomal membranes
"Aβ22-35: longer beta-amyloid fragment without positive charge, non-channel-forming (EDVGSNKGAIIGLM; Amyloid-beta protein 42; UniProt P05067 693-706, looked up, fragment)",permeabilization of negatively charged (phosphatidylserine) liposomes to calcium,[1],does not create a noticeable number of channels; also recorded: does not permeabilize liposomes
"Aβ25-35: positively charged short beta-amyloid fragment, channel-forming (GSNKGAIIGLM; Amyloid-beta protein 42; UniProt P05067 696-706, looked up, fragment)",permeabilization of negatively charged (phosphatidylserine) liposomes to calcium,[1],Membrane permeabilization occurs; also recorded: creates multiple liposomes permeable to calcium
same,molecules of peptide out of which one channel is formed,[1]; model conditions,approximately 10^12 molecules
same,permeabilization of neutral (phosphatidylcholine) liposomes to calcium,[2],does not permeabilize liposomes; also recorded: not permeabilized
same,share of channels with high conductance,"[4]; acidic pH (pH 5.0), 20 μM peptide",more than 30%
same,conductance of channels formed (upper value),[4]; planar lipid bilayers,up to 1 nS
aprotinin,"apoptosis by the inhibitor itself (spontaneously occurring, TUNEL)","[3]; rat, in vivo",tends to decrease even spontaneously occurring apoptosis
same,Aβ-induced apoptosis (TUNEL marker in the brain),[3]; rats,prevented Aβ-induced apoptosis
same,accumulation of Aβ immunoreactivity / amyloid,[3]; rats,did not exacerbate intracellular accumulation of amyloid
"cystatin C (protein, UniProt P01034 27-146, looked up) Cystatin-C: SSPGKPPRLVGGPMDASVEEEGVRRALDFAVGEYNKASNDMYHSRALQVVRARKQIVAGVNYFLDVELGRTTCTKTQPNLDNCPFHDQPHLKRKAFCSFQIYAVPWQGTMTLSKSTCQDA",drop of cell survival induced by Aβ1-42,[5],prevented the drop of cell survival induced by Aβ1-42
"α1-anti-chymotrypsin (protein, UniProt P01011 24-423, looked up) Alpha-1-antichymotrypsin: HPNSPLDEENLTQENQDRGTHVDLGLASANVDFAFSLYKQLVLKAPDKNVIFSPLSISTALAFLSLGAHNTTLTEILKGLKFNLTETSEAEIHQSFQHLLRTLNQSSDELQLSMGNAMFVKEQLSLLDRFTEDAKRLYGSEAFATDFQDSAAAKKLINDYVKNGTRGKITDLIKDLDSQTMMVLVNYIFFKAKWEMPFDPQDTHQSRFYLSKKKWVMVPMMSLHHLTIPYFRDEELSCTVVELKYTGNASALFILPDQDKMEEVEAMLLPETLKRWRDSLEFREIGELYLPKFSISRDYNLNDILLQLGIEEAFTSKADLSGITGARNLAVSQVVHKAVLDVFEEGTEASAATAVKITLLSALVETRTIVRFNRPFLMIIVPTDTQNIFFMSKVTNPKQA",optimal dose for inhibition of amyloid toxicity,"[6]; 15 cells (IS cells), MTT, different concentrations of Aβ",10^−7 M
same,beta-amyloid-induced drop in cell viability,[6]; MTT,can protect against Aβ-induced drop in cell viability
same,beta-amyloid-induced drop in cell viability,[6]; [9],prevented
same,effect of further increase of ACT concentration on protection against beta-amyloid,"[6]; above optimal dose, bell-shaped dose-dependence",disappearance of protection; also recorded: bell-shaped dose-dependence of protection
same,protection against beta-amyloid-induced drop in cell viability,"[6]; in some conditions, cell line not specified (15 cells or rat primary cortical cultures), MTT",100%
same,optimal dose for inhibition of amyloid toxicity,[7],10^−8 M
same,amylin-induced drop in cell viability / cellular toxicity,[8]; MTT,prevent amylin-induced cellular toxicity
same,amylin-induced drop in cell viability / cellular toxicity,[8]; [9],prevented
same,protection against amylin,[8]; MTT,< 100%
same,effect of further increase of ACT concentration on protection against amylin,[8]; above optimal dose,significantly decreased the protective effect
same,effect on fibril formation,Aβ1-42 toxicity,without affecting fibril formation
